Experimental findings from patent publication US20110212111A1, “MHC II Associated Protein and Uses Thereof” (priority 2008, published 2011) are described below.

Assay [1] addresses T1, MPYS (Mus musculus, UniProt Q3TBT3).
T1 construct: used to detect the endogenous MPYS complex in mouse splenocytes; endogenous in cells; host or cells: mouse splenocytes; K46 mouse B lymphoma cells; RAW264.7 mouse macrophage cells
T1 sequence (Q3TBT3 1-378): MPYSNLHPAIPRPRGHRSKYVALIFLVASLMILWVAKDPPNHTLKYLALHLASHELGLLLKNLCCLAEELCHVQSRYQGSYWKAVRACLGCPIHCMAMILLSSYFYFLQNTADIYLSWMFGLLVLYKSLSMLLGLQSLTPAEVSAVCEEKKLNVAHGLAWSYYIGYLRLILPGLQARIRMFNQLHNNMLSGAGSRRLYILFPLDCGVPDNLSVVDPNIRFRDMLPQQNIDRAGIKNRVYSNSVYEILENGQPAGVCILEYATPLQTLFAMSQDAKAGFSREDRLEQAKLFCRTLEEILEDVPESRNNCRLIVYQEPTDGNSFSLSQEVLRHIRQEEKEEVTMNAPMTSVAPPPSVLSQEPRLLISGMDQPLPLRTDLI
The assay is described as follows: MPYS oxidation (disulfide bonded homodimer, non-reducing SDS-PAGE). To be noted: RAW264.7 cells. Format: cell-based. The source says: (§1) It was also noticed that after the thiol reductase reaction, a large portion of MPYS occurs in a ˜80 kDa SDS resistant form consistent with the predicted size of a homodimer. The present inventors have shown that MPYS is dimeric in mouse B cells. To determine whether MPYS occurs as a non-disulfide-bonded dimer that becomes […] disulfide bonded upon oxidation, the chemical crosslinker Dithiobis[succinimidyl propionate] (DSP) was used to detect the endogenous MPYS complex in mouse splenocytes. In non-reducing SDS-PAGE, DSP treated MPYS ran as a single band of ˜80 kDa, the predicted size of a MPYS homodimer while non-DSP treated mock (or DTT treated) MPYS ran at the monomer size (˜40 kDa). It was also discovered that Flag-tagged MPYS associates with HA-MPYS when the two were co-expressed. Thus, the ˜80 kDa band seen on the non-reducing gels is a MPYS homodimer. Since this homodimer is sensitive to SDS, its dimerization is not mediated by intermolecular disulfide bonds.
(§2) The appearance of the SDS resistant MPYS homodimer after the thiol reductase reaction indicated the formation of intermolecular disulfide bonds in homodimeric MPYS is a consequence of oxidation. […] […] H2O2) and the thiol reductase reaction can lead to formation of intermolecular disulfide bonds in homodimeric MPYS.

The subject of the next assay is IFNβ promoter. The experiment in a line: MPYS induced IFNβ reporter activation in TLR4-293 cells. Format: cell-based, human. Particulars: TLR4-293T / TLR4-293GT cells. How it is done: (§3) 293 GT cells and their derivatives (˜1×10^5) were seeded in 24-well dishes and transfected the following day using Effectene transfection reagent kit (Qiagen, cat #301427). Reporter assays were performed as previous described. Id.
(§4) Cells were seeded in 24-well dishes (˜1×10^5/ml) and transfected the following day using Effectene transfection reagent kit (Qiagen, 301427). Reporter assays were performed as previous described by Bin et al., in J Biol. Chem., 2003, 278, 24526-24532. All experiments were repeated at least three times and results are representative.

In a further assay the test system is TLR4-293T cells. The experiment in a line: Measurement of intracellular ROS (H2DCFDA flow cytometry). Format: cell-based, human. On the procedure:
Cells were washed and suspended in PBS, and then culture with H2DCFDA (5 μM) (Invitrogen, D399) for 20 min at 37° C. They were then washed in PBS and the fluorescence was measured by flow cytometry.
For orientation: A flow cytometer gives signals particle by particle.

For a further assay, the system named is NFκB. The experiment in a line: MPYS induced NFκB reporter activation in TLR4-293 cells. Format: cell-based, human. To be noted: TLR4-293T / TLR4-293GT cells. How it is done:
as §3, §4

Assay [2] relates to RAW264.7 macrophage cells. The assay is described as follows: Listeria monocytogenes induced IFNβ response in RAW264.7 cells (IFNβ-luc). Format: cell-based, mouse. How it is done: RAW264.7, K46 B lymphoma cells and the 293GT cells were maintained in IMDM supplemented with 5% FBS. 293MT cells were maintained in DMEM (GIBCO, cat: 11965), 5% FBS (Biosource, 200p-500HI), sodium pyruvate (GIBCO 11360, 1 mM), HEPES buffer (GIBCO 15630-080, 10 mM) and 2-ME (50 μM) (Life Technologies, Gaithersburg Md.). The RAW264.7 cells stably expressing the IFNβ-Luciferase construct were generated by co-transfecting RAW264.7 cells with pGL3-IFNβ-Luciferase (Promega) and p-Puromycin plasmids (Clonetch). The stable cell line was established under puromycin selection (4 μg/ml).
RAW264.7 cells expressing the IFNβ-luc construct were infected with Listeria monocytogenes strain 10403S at multiplicity of five bacteria/cell. Cells were washed at 1 h after infection. Live bacterial were killed by addition of gentamicin. Whole cell lysates were prepared 5.5 h after infection. Luciferase activity was read with BD Monolight kit and Synergy reader.

The next assay concerns ERK. The experiment in a line: MHC II induced ERK activation (phospho-ERK blotting). Format: cell-based, murine. To be noted: K46 cells; PD98059 at 50 μM. On the procedure:
(§5) ERK inhibitor PD98059 (Calbiochem, 513000), AKT inhibitor LY294002 (Calbiochem, 440202), and p38 inhibitor SB203580 (Calbiochem, 559389) were used in this study. The inhibitor was added to cells at 5×10^6 cells/mL and cultured for 4 hrs. Samples were then split into 1×10^6 cells/mL and cell death was induced and measured as above. To inhibit src kinase, PP2 (Calbiochem, 529573) was added into cells and cultured for 30 min before cell death was induced as above.
(§6) Cells were lysed in 0.33% CHAPS buffer (150 mM NaCl, 10 mM Tris pH 7.5, 10 mM sodium pyrophosphate, 2 mM Na3VO4, 10 mM NaF, 0.4 mM EDTA, 1 mM PMSF, and 1 μg/mL each of aprotinin, α1-antitrypsin, and leupeptin) (40×10^6/mL) at 4° C. for 1.5 h or overnight. Cell lysates were centrifuged at 12,000 g at 4° C. for 20 min. Supernatants were analyzed on a 10% SDS-PAGE gel. The gel was transferred to a PVDF membrane and proteins were probed with Abs and visualized using an ODYSSEY Infrared Imaging System (LI-COR). […]

The test system of another assay is K46 B lymphoma cells. The assay is described as follows: MHC II mAb-induced cell death of K46 cells (Annexin V/PI, DiOC6/PI flow cytometry). Format: cell-based, murine. To be noted: for effect of inhibitor on MHC II mAb-induced death response: K46 cells pre-treated with inhibitor. On the procedure:
K46 cells were suspended in 5% complete IMDM media at a concentration of 10^6 cells/mL and then transferred to round bottomed 96-well plates (100 μL/well) and cultured at 37° C. for 1 h. Biotinylated MHC II mAbs were added into the wells and incubated for 12 min. Avidin was then added into the wells and cells were cultured for the indicated time. PI (2 μg/mL) and Annexin V-Alexa Fluor 488 (1 μL/100 μL cells) (A-13201, Molecular Probes), or DiOC6 (50 nM) and PI (2 μg/mL) was used to measure apoptotic or dead cells by flow cytometry.
as §5

Assay [3] relates to MPYS. The experiment in a line: MPYS oxidation (disulfide bonded homodimer, non-reducing SDS-PAGE). To be noted: ER stress inducer; cells not given. Format: cell-based.
Text: as §1, §2

The test system of assay [4] is calcium mobilization in K46 cells. The experiment in a line: MHC II mAb-induced calcium mobilization (Indo-1AM). Format: cell-based, murine. How it is done: Cells were loaded with Indo-1AM (Molecular Probes, Eugene, Oreg.) for 30 min at 37° C. as recommended by the manufacturer. Anti-MHC II mAb (10 μg/mL) was then added to the suspension for another 12 min at 37° C. before cells were washed and suspended in IMDM supplemented with 2% FCS. The cells (10^6 cells/mL) were analyzed before and after stimulation via cros slinking with avidin (20 μg/mL). Data were analyzed by Flow-Jo software (Tree Star, Inc., San Carlos, Calif.).

For assay [5], the system named is tyrosine phosphorylation in K46 cells. The assay is described as follows: MHC II mAb-induced tyrosine phosphorylation (immunoblotting). Format: cell-based, murine. On the procedure:
as §5, §6
In general terms: A western blot detects proteins with antibodies after separation by electrophoresis.

With Poly(I:C), on MPYS [1], the “formation of oxidized MPYS” value is “did not generate oxidized MPYS”.
For the compound `C=C(C)[C@H]1Cc2c(ccc3c2O[C@@H]2COc4cc(OC)c(OC)cc4[C@@H]2C3=O)O1` [rotenone], in the assay on IFNβ promoter, the “effect on MPYS induced IFNβ reporter activation” value is given as “completely inhibited”. For the same compound, the “cellular ROS level” value in the assay on TLR4-293T cells is “increased cellular ROS level”. Also, the “effect on MPYS induced NFκB reporter activation” value in the assay with NFκB is reported as “completely inhibited”. The “formation of oxidized MPYS” value at MPYS [1] was “led to the formation of oxidized MPYS”. Moreover, the “effect on Listeria monocytogenes induction of IFNβ production” value in assay [2] was “significantly inhibited”.
Regarding `COc1cccc(-c2cc(=O)c3ccccc3o2)c1N` [PD98059], the “effect on MHC II induced ERK activation” value with ERK was “did not completely inhibit”. Also, the “inhibition of MHC II mediated cell death” value in the assay with K46 B lymphoma cells (inhibitor at 50 μM, K46 cells) is listed as “about 50%”.
As for `C[C@H]1CCC/C=C/[C@@H]2C[C@H](O)C[C@H]2[C@H](O)/C=C/C(=O)O1` [Brefeldin A], the “formation of oxidized MPYS” value in the assay on MPYS [3] was “generated oxidized MPYS”.
`CC(C)(C)n1nc(-c2ccc(Cl)cc2)c2c(N)ncnc21` [PP2]: in assay [4], the “effect on MHC II mAb-induced calcium responses” value was “blocked”. Moreover, the “effect on MHC II induced ERK activation” value in the assay on ERK is “neither MHC class II-mediated activation of ERK nor apoptosis was inhibited”. For the same compound, the “effect on MHC II mAb-induced tyrosine phosphorylation” value in [5] (K46 cells) was “blocked”. Also, the “effect on MPYS tyrosine phosphorylation and recruitment of SHP-1 and SHIP-1” value in assay [5] (after MHC class II aggregation) is recorded as “blocked”. Besides, in the assay with K46 B lymphoma cells, the “effect of inhibitor on MHC II mAb-induced death response” value (“effect of inhibitor” for short) is recorded as “remained largely intact”.
Consider `O=c1cc(N2CCOCC2)oc2c(-c3ccccc3)cccc12` [LY294002], for which, in the assay with K46 B lymphoma cells, the “effect of inhibitor” value was “no significant effect”.
In the case of `C[S+]([O-])c1ccc(-c2nc(-c3ccncc3)c(-c3ccc(F)cc3)[nH]2)cc1` (centres unmarked) [SB203580], the “effect of inhibitor” value in the assay on K46 B lymphoma cells was “no significant effect”.
For the compound `OO` [H2O2], on MPYS [1], the “formation of oxidized MPYS” value is listed as “led to the formation of oxidized MPYS”.
